Patent US6303619A, “Meta-substituted acidic 8-phenylxanthine antagonists of A3 human adenosine receptors” (priority 1998, dated 2001)

What was measured:
[1] = molecular target: T1, human A1 adenosine receptor (Homo sapiens, UniProt P30542); experiment: competition binding, recombinant human A1 adenosine receptor; settings: A3 versus A1
T1 construct: expressed in transfected cells; host or cells: COS7 or CHO cells
T1 sequence (P30542 1-326): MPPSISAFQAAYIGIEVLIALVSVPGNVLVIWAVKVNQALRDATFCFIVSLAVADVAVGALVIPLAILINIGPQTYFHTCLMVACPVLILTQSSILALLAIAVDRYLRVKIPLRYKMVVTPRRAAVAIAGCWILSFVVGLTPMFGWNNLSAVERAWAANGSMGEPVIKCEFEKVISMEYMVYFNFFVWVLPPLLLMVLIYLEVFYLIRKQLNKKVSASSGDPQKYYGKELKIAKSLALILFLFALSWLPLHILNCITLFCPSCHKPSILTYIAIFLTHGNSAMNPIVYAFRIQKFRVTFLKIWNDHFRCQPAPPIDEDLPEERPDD
Experimental: (§1) Monolayer cell culture of transfected COS7 cells were dissociated with 1 mM EDTA in phosphate buffered saline and resuspended in 5 mM Tris, pH7.6/10 mM MgCl2. The cells were subjected to freeze-thaw lysis and the suspension was homogenized in a glass dounce homogenizer. The membranes were pelleted, resuspended in binding buffer, 50 mM Tris pH 7.6/10 mM MgCl2 and incubated with adenosine deaminase before the binding assay. The binding assay was performed by incubating 50-100 Fg of membranes with increasing concentrations of radiolabeled adenosine agonists. Bound ligand was separated from free ligand by filtration on a SKATRON CELL […] equipped with a receptor binding filtermat. Bound radioactivity was measured by scintillation counting. Substances which bind to or enhance binding to expressed human adenosine receptors in COS and CHO cells can be identified in competition binding assays with radiolabeled adenosine or xanthine analogs. […] Protein concentration was determined by tie method of Bradford ((1976) Anal. Biochem. 72: 248-250). […] Bound radioactivity was measured by scintillation counting in READY SAFE SCINTILLATION COCKTAIL (BECKMAN). […] Non-specific binding was determined in the presence of 100 FM CPA. Bound radioactivity was measured by scintillation counting in READY SAFE LIQUID SCINTILLATION COCKTAIL (BECKMAN).

[2] = molecular target: T2, human A2A adenosine receptor (Homo sapiens, UniProt P29274); experiment: competition binding, recombinant human A2A adenosine receptor; settings: A3 versus A2A
T2 construct: expressed in transfected cells; host or cells: COS7 cells
T2 sequence (P29274 whole entry): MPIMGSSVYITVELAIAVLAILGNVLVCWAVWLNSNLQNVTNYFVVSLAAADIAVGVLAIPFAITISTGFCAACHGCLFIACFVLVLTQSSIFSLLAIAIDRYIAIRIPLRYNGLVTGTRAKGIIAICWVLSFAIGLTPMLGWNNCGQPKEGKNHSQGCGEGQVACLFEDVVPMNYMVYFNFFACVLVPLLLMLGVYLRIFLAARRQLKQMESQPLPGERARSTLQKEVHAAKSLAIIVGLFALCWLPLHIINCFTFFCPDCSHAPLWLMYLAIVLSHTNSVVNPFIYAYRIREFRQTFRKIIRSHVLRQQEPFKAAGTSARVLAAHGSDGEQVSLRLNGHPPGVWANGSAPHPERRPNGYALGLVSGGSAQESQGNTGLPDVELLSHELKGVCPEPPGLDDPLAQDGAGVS
Experimental: as §1

In the case of CCCn1c(=O)c2[nH]c(-c3cccc(C=CC(=O)O)c3)nc2n(CCC)c1=O [BW-3911], the “fold selectivity for A3 compared to human A1” value [1] is reported as 47 fold and the “fold selectivity for A3 compared to human A2A” value [2] is reported as 18 fold.
